Results reported in publication PMC8881610 (Nature Communications, 2022).
Residue numbers refer to the chain shown, from its start.

Assays:
Assay in all cases: cAMP accumulation assay (LANCE Ultra cAMP kit), GIPR WT, mutant or modified constructs
Format in all cases: cell-based
Set-up in all cases: acylated tirzepatide to the full-length or modified; Flag; expressed in transfected cells; host or cells: HEK293T
GIPR [1] = biological target: T1, GIPR (Homo sapiens, UniProt P48546, Q285A); details: GIPR Q285A, HEK293T
T1 sequence (P48546 22-466 Q285A): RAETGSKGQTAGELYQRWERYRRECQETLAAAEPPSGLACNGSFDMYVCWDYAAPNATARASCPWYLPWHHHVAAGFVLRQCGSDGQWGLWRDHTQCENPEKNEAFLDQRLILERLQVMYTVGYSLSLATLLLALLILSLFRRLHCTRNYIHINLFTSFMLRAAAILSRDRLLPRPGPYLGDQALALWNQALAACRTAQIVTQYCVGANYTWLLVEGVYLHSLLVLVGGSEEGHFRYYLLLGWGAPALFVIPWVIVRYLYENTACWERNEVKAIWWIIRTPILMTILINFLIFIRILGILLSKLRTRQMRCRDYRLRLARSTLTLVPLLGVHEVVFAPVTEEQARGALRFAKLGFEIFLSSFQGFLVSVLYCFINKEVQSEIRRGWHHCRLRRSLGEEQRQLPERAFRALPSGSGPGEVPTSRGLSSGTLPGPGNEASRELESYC
Summary of the method: (§1)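 HEK293T cells transiently transfected with human GIPR WT or mutant constructs (pcDNA3.1), used after 24 h. The cells were stimulated with peptide agonists for 40 min at RT in HBSS with 5 mM HEPES, 0.1% BSA or casein, and 0.5 mM IBMX. cAMP was read by LANCE Ultra TR-FRET (Eu-cAMP tracer/ULight anti-cAMP, 1 h RT, 620/650 nm).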

GIPR [2] = biological target: T2, GIPR (Homo sapiens, UniProt P48546, W209A); details: GIPR W209A, HEK293T
T2 sequence (P48546 22-466 W209A): T1 sequence (P48546 22-466 Q285A) with W188A, A264Q
Summary of the method: as §1

GIPR [3] = biological target: T3, GIPR (Homo sapiens, UniProt P48546, W90A); details: HEK-293T, GIPR W90A; HEK293T
T3 sequence (P48546 22-466 W90A): T1 sequence (P48546 22-466 Q285A) with W69A, A264Q
Summary of the method: as §1

[4] = read-out: cAMP pEC50 (converted)

Work on `CCCCCCCCCCCCCCCC(=O)N[C@@H](CCC(=O)NCCCC[C@H](NC(=O)[C@H](CC(=O)O)NC(=O)[C@H](CO)NC(=O)[C@@H](NC(=O)[C@H](Cc1ccccc1)NC(=O)[C@@H](NC(=O)CNC(=O)[C@H](CCC(N)=O)NC(=O)C(C)(C)NC(=O)[C@@H](N)Cc1c[nH]cn1)[C@@H](C)O)[C@@H](C)O)C(=O)N[C@@H](CO)C(=O)N[C@@H](CCCCN)C(=O)N[C@@H](Cc1ccc(O)cc1)C(=O)N[C@@H](CC(C)C)C(=O)N[C@@H](CC(=O)O)C(=O)N[C@@H](CCC(=O)O)C(=O)N[C@@H](CCCNC(=N)N)C(=O)N[C@@H](C)C(=O)N[C@@H](C)C(=O)N[C@@H](CCC(N)=O)C(=O)N[C@@H](CC(=O)O)C(=O)N[C@@H](Cc1ccccc1)C(=O)N[C@H](C(=O)N[C@@H](CCC(N)=O)C(=O)N[C@@H](Cc1c[nH]c2ccccc12)C(=O)N[C@@H](CC(C)C)C(=O)N[C@@H](CC(C)C)C(=O)N[C@@H](CC(=O)O)C(=O)NCC(=O)NCC(=O)N1CCC[C@H]1C(=O)N[C@@H](CO)C(=O)N[C@@H](CO)C(=O)NCC(=O)N[C@@H](C)C(=O)N1CCC[C@H]1C(=O)N1CCC[C@H]1C(=O)N1CCC[C@H]1C(=O)N[C@@H](CO)C(N)=O)C(C)C)C(=O)O` [Peptide 20] yielded an EC50 (GIPR [1]; [4]) of 0.0417 nM, an Emax (GIPR [1]; HEK-293T) of 97.6 ± 1.37% and an EC50 (GIPR [2]; [4]) of 0.00363 nM. For the same compound, the Emax (GIPR [2]; HEK-293T) was 100 ± 1.45% and the Emax (GIPR [3]) was 98 ± 4.59%.
